According to patent publication US8268292B2, “Obovatol having anti-anxiety activity” (Korea Research Institute of Bioscience and Biotechnology, priority 2005, dated 2012):

How the values were obtained:
Type in all cases: in vivo
ICR male mice [1] = experiment: elevated plus-maze model test
Experimental: Animals and Drugs: ICR male mice weighing from 20 g to 28 g (5 or 6 weeks) were purchased from Daehan Biolink Co., Ltd. (Korea) and housed for at least 7 days prior to the experiment under 12-h light/dark cycle (lights on at 7:00 am) in a temperature-controlled (22±2° C.) animal facility. Food and water were freely accessible. All mice were maintained in accordance with the National Institute of Toxicological Research on the Korea Food and Drug Administration guideline for the care and use of laboratory animals. Diazepam (ample type) was purchased from Dea-Won Pharmaceutical Co. (South Korea) and was orally administered 30 min prior to the experiment. Obovatol was kindly gifted from Korea Research Institute of Bioscience and Biotechnology and was orally administered 60 min prior to the experiment.
Treatment of Test Sample: obovatol prepared from Example 1 was dissolved in 0.1 ml of ethanol and diluted with 0.1% Tween-80 in order to administrate with an amount of 0.1 ml/10 g per weight of test animal. Various concentrations of test sample (obovatol), i.e., 0.2, 0.5 and 1 mg/kg were orally administrated at 1 hour prior to the experiment and […] of diazepam was peritoneally administrated into animal at 30 mins prior to the experiment.
To determine the anti-anxiety activity after administration of obovatol, elevated plus-maze model test was performed as follow in accordance with procedure cited in the literature (Dawson, G. R. et al., Trends in Pharmacological Sciences, 16, pp. 33-36, 1995).
Elevated plus-maze apparatus consists of two perpendicular open (30×5 cm) and two closed arms (30×5 cm) with 15 cm high walls, extending from the central platform (5×5 cm). […] All experimental sessions were recorded with a video camera mounted vertically above the maze. The activity on the open arm was evaluated as: 1) time spent on the open arms relative to the total time spent in the plus-maze, expressed as a percentage (100× time spent on open arm/total time in the plus-maze); 2) the number of entries into both open and closed arms, expressed as a percentage (100× open/total entries). […]

ICR male mice [2] = experiment: locomoter activity test; conditions: oral 0.2, 0.5 and 1.0 mg/kg; dose dependent
Experimental: All the animals used in the test are prepared in the similar method according to Experimental Example 1.
To determine and re-confirm the anti-anxiety activity of obovatol, following locomoter activity test was performed as follow in accordance with the procedure cited in the literature (Kulkarni S. K. et al., Methods and Findings in Experimental and Clinical Pharmacology, 18, pp. 219-230, 1996).
All the animals were transferred to test cage (diameter: 20 cm, height: 18 cm) one hour prior to the administration of test samples, acclimated the environment for 10 mins and the locomoter activity was determined automatically at every 1 hour.

Sprague-Dawley rats = experiment: acute toxicity test on Sprague-Dawley rats; conditions: oral 10, 100 and 1000 mg/kg, observed for 2 weeks
Experimental: (§1) The acute toxicity tests on ICR mice (mean body weight 25±5 g) and Sprague-Dawley rats (235±10 g, Biogenomics Co., Ltd.) were performed using the obovatol compound. Four groups consisting of 3 mice or rats was administrated orally with 10 mg/kg, 100 mg/kg and 1000 mg/kg of test sample or solvents (0.2 mL, […].) respectively and observed for 2 weeks.

ICR mice = experiment: acute toxicity test on ICR mice; conditions: oral 10, 100 and 1000 mg/kg, observed for 2 weeks
Experimental: as §1

## obovatol
ICR male mice [1]; at the same doses of the drugs, elevated plus-maze, FIG. 3 and FIG. 4
  anti-anxiety activity relative to diazepam: more potent anti-anxiety activity than diazepam
ICR male mice [1]; oral 0.2, 0.5 and 1.0 mg/kg, 60 min prior (P<0.05, P<0.05 and P<0.005)
  percentage of time spent in the open arms: significant increases
ICR male mice [1]; oral 0.2, 0.5 and 1.0 mg/kg, 60 min prior, dose dependent, compared with diazepam treated group (P<0.05, P<0.05 and P<0.005)
  percentage of entries into open arms: significantly increased
ICR male mice [2]
  locomoter activity: significantly decreased
Sprague-Dawley rats
  treatment-related effects on mortality, clinical signs, body weight changes and gross findings: no treatment-related effects
ICR mice
  treatment-related effects on mortality, clinical signs, body weight changes and gross findings: no treatment-related effects
